From patent publication US20210052616A1, “ANTHRACYCLINE ENCAPSULATED WITH A POLYSACCHARIDE FOR USE IN THE TREATMENT OF TUMOURS” (NANOVELOS S.A, priority 2018, published 2021)
Entries after “also recorded” stand apart in the source; their conditions may differ.

Assays:
[1] = test system: internal organs; details: microscopic images, dose of 10 mg/kg bw
Excerpt: (§6) Following Example 3, mice were obtained constituting an ovarian tumour test model, which were divided into 3 groups.

[2] = MTT cytotoxicity test, HeLa; format: cell-based; details: human, HeLa cells; for viability at 24 h, 125000 ng/ml NPs (pure drug equimolar): 1.25E+05 ng/ml NPs (pure drug equimolar); for viability at 24 h, 25000 ng/ml NPs (pure drug equimolar): 2.50E+04 ng/ml NPs (pure drug equimolar); for viability at 24 h, 50000 ng/ml NPs (pure drug equimolar): 5.00E+04 ng/ml NPs (pure drug equimolar)
Excerpt: (§1) In this test, […] present in the cells converts the soluble tetrazolium salt (3-4,5-dimethylthiazol-2-yl)-2,5-diphenyltetrazolium bromide) into a reduced form. The reaction yields water-insoluble purple crystalline formazan. The number of crystals formed depends on the enzyme activity so that it is directly proportional to the number of viable cells in the sample. Spectrophotometric measurement requires the use of an organic solvent to dissolve the crystals obtained (isopropanol). The change in colour intensity is measured by spectrophotometry at 570 nm wavelength. The test was performed for a number of dilutions (9) of nanoparticle solutions containing the tested anthracycline. The baseline concentration of nanoparticles for MTT tests was 2.5 mg of nanoparticles/ml. The results were compared to cytotoxicity results obtained for pure drugs with equimolar drug concentration (equal to the concentration encapsulated in nanoparticles). The study was also performed for drug-free nanoparticles (the carrier itself was obtained similarly to the nanoparticles with the drug). Cells not exposed to toxic substances were used as a control for toxicity studies.
(§2) After reaching 85-90% confluence, the cells were trypsinised using a 0.25% trypsin solution. The cells were then centrifuged (1200 rpm, 5 min.) and suspended in a culture medium suitable for a particular cell line. […] The cells were plated at a concentration of 1000 cells/100 μl of medium per culture well (96-well plates). The prepared plates were incubated (37° C./5% CO2/22 h to 26 h). Subsequently, the culture medium was replaced with a fresh one (100 μl) containing the appropriate concentration of the tested nanoparticles and set aside for 24 h (37° C./5% CO2). After the lapse of the test time, the medium was removed and replaced with 50 μl of an MTT reagent solution at a concentration of 1 mg/ml. The plate was incubated for 2 hours (37° C./5% CO2). Subsequently, the MTT solution was removed, and 100 μl of isopropanol was added. After shaking the plate on the shaker for 2 minutes, the results for 570 nm wavelength were read (reference value of 650 nm). The mean value of absorbance read OD570 of the cells not exposed to a toxic agent (control) should be above 0.7 [see literature item 206].
(§3) A decrease in the number of viable cells causes a decrease in metabolic activity in the sample. This reduction directly correlates with the amount of blue and purple formazan formed, monitored basing on the optical density at 570 nm. The following equation (C.1) is used to calculate viability reduction compared to control:
(§4) where: • OD570e is the mean value of the measured absorbance of the test samples; • OD570b is the mean value of the measured absorbance of the control.
(§5) The results obtained were statistically analysed using the Dixon Q test.

[3] = test system: HeLa cell line; test: MTT cytotoxicity test, HeLa; format: cell-based; details: 24 h
Excerpt: as §1, §2, §3, §4, §5

[4] = test system: mice; test: Survival of mice during treatment (Example 3); format: in vivo; details: EPI 15 mg/kg bw; NPs-EPI 3.75 and […] bw, i.v. every second day
[5] = test system: OVCAR3 line cells; test: Anti-tumour efficacy, tumour volume, OVCAR3 xenograft, 10 mg/kg bw every 3 days (Example 4); format: in vivo, mice
Excerpt: as §6

[6] = test system: MCF-7; test: MTT cytotoxicity test, MCF-7; format: cell-based; details: 24 h
Excerpt: as §1, with “The results were compared to cytotoxicity results obtained for pure drugs with equimolar drug concentration (equal to the concentration encapsulated in nanoparticles).” left out
as §2, with “After shaking the plate on the shaker for 2 minutes, the results for 570 nm wavelength were read (reference value of 650 nm).” left out
as §3, §4, §5

[7] = test system: internal organs; test: Macroscopic and histopathological examination of internal organs at necropsy (Example 3); format: in vivo, mice
[8] = to limit side effects; cited from earlier work
[9] = 1.25E+04 ng/ml NPs (pure drug equimolar)
[10] = 1.25E+06 ng/ml NPs (pure drug equimolar)
[11] = 2.50E+05 ng/ml NPs (pure drug equimolar)
[12] = 2.50E+06 ng/ml NPs (pure drug equimolar)
[13] = 5.00E+03 ng/ml NPs (pure drug equimolar)
[14] = 5.00E+05 ng/ml NPs (pure drug equimolar)
[15] = 10 mg/kg bw every 3 days, group average
[16] = MCF-7, 1.25E+04 ng/ml NPs (pure drug equimolar)
[17] = MCF-7, 1.25E+05 ng/ml NPs (pure drug equimolar)
[18] = MCF-7, 1.25E+06 ng/ml NPs (pure drug equimolar)
[19] = MCF-7, 2.50E+04 ng/ml NPs (pure drug equimolar)
[20] = MCF-7, 2.50E+05 ng/ml NPs (pure drug equimolar)
[21] = MCF-7, 2.50E+06 ng/ml NPs (pure drug equimolar)
[22] = MCF-7, 5.00E+03 ng/ml NPs (pure drug equimolar)
[23] = MCF-7, 5.00E+04 ng/ml NPs (pure drug equimolar)
[24] = MCF-7, 5.00E+05 ng/ml NPs (pure drug equimolar)

In the case of `COc1cccc2c1C(=O)c1c(O)c3c(c(O)c1C2=O)C[C@@](O)(C(=O)CO)C[C@@H]3O[C@H]1C[C@H](N)[C@@H](O)[C@H](C)O1` [Epi, epirubicin], the “Appearance of the organ: Tumour” value [1] is reported as “anaplastic lesions, moderate tumour necrosis”, the “Appearance of the organ: Liver” value ([1]; 10 mg/kg) is reported as “Hyperaemia, features of hepatocyte; also recorded: feathery degeneration, focal necrosis” and the “Appearance of the organ: Reproductive organs” value ([1]; 10 mg/kg) is reported as “Severe lesions, endometrial hypertrophy,; also recorded: cystic lesions, the growth of Leydig cells”. The viability at 24 h, 125000 ng/ml NPs (pure drug equimolar) [2] was 12.7%, the viability at 24 h, 25000 ng/ml NPs (pure drug equimolar) [2] was 72.8% and the viability at 24 h, 50000 ng/ml NPs (pure drug equimolar) [2] was 17%. For the same molecule, the Average viability [3, 9] was 98.38%, the Average viability [3, 10] was 3.6% and the Average viability [3, 11] was 14.93%. For the same molecule, the Average viability [3, 12] was 4.21%, the Average viability [3, 13] was 100.18% and the Average viability [3, 14] was 7.96%. For the same molecule, the “death or survival of the mice during treatment” value [4] was “resulted in the death of the mice”, the “Average tumour volume (mm^3) Before necropsy” value ([5]; 10 mg/kg bw every 3 days (group K), after 3 administrations) was 124.45 ± 57.05 mm^3 and the “Average tumour volume (mm^3) Before 1st administration” value [5, 15] was 143.56 ± 9.22 mm^3. The “Average tumour volume (mm^3) Before 2nd administration” value [5, 15] was 148.77 ± 41.82 mm^3, the “Average tumour volume (mm^3) Before 3rd administration” value [5, 15] was 131.00 ± 42.96 mm^3 and the “average increase of tumour volume” value ([5]; 10 mg/kg bw, after the first dose) was 3.63%. It also gave an Average viability [6, 16] of 88.51%, an Average viability [6, 17] of 46.97% and an Average viability [6, 18] of 5.9%. The Average viability [6, 19] was 64.7%, the Average viability [6, 20] was 41.35% and the Average viability [6, 21] was 1.68%. It also gave an Average viability [6, 22] of 97.78%, an Average viability [6, 23] of 56.01% and an Average viability [6, 24] of 31.11%. The “inflammation and changes of liver and spleen compared to the control group” value ([7]; OVCAR3 mice) was “severe inflammation and changes in the structure of the liver”, the “Macroscopic evaluation of internal organs: Adrenal glands” value ([7]; mouse #5, 15 mg/kg bw) was “No visible changes” and the “Macroscopic evaluation of internal organs: Bladder” value ([7]; mouse #5, 15 mg/kg bw) was “No visible changes”. For the same molecule, the “Macroscopic evaluation of internal organs: Brain” value ([7]; mouse #5, 15 mg/kg bw) was “No visible changes”, the “Macroscopic evaluation of internal organs: Heart” value ([7]; mouse #5, 15 mg/kg bw) was “No visible changes” and the “Macroscopic evaluation of internal organs: Left kidney” value ([7]; mouse #5, 15 mg/kg bw) was “Consistency softer than normal”. The “Macroscopic evaluation of internal organs: Liver” value ([7]; mouse #5, 15 mg/kg bw) was “consistency softer than normal, blood vessels; also recorded: Liver surface colour dark cherry to brown,”, the “Macroscopic evaluation of internal organs: Lung” value ([7]; mouse #5, 15 mg/kg bw) was “No visible changes” and the “Macroscopic evaluation of internal organs: Pancreas” value ([7]; mouse #5, 15 mg/kg bw) was “No visible changes”. For the same molecule, the “Macroscopic evaluation of internal organs: Reproductive organs” value ([7]; mouse #5, 15 mg/kg bw) was “No visible changes”, the “Macroscopic evaluation of internal organs: Right kidney” value ([7]; mouse #5, 15 mg/kg bw) was “Consistency softer than normal” and the “Macroscopic evaluation of internal organs: Spleen” value ([7]; mouse #5, 15 mg/kg bw) was 1.6 cm × 0.4 cm × 0.1 cm in size, and slightly smaller, dark brown in colour. The “Macroscopic evaluation of internal organs: Stomach” value ([7]; mouse #5, 15 mg/kg bw) was “No visible changes”, the “Macroscopic evaluation of internal organs: Thymus” value ([7]; mouse #5, 15 mg/kg bw) was “No visible changes” and the “External appearance of the mouse: skin thick” value ([7]; mouse #5, EPI/OVCAR3 group, 15 mg/kg bw) was 0.21 mm. For the same molecule, the “External appearance of the mouse” value ([7]; mouse #5, EPI/OVCAR3 group, 15 mg/kg bw, 15 mg/kg) was “Anal area dirty with faeces, mouse; also recorded: cachectic”.

`COc1cccc2c1C(=O)c1c(O)c3c(c(O)c1C2=O)C[C@@](O)(C(C)=O)C[C@@H]3O[C@H]1C[C@H](N)[C@H](O)[C@H](C)O1` [Dau, daunorubicin] showed a viability at 24 h, 125000 ng/ml NPs (pure drug equimolar) [2] of 7.89%, a viability at 24 h, 25000 ng/ml NPs (pure drug equimolar) [2] of 2.11% and a viability at 24 h, 50000 ng/ml NPs (pure drug equimolar) [2] of 4.14%. The Average viability [3, 9] was 2.851%, the Average viability [3, 10] was 107.342% and the Average viability [3, 11] was 7.579%. It also gave an Average viability [3, 12] of 111.366%, an Average viability [3, 13] of 2.054% and an Average viability [3, 14] of 28.287%. For the same molecule, the Average viability [6, 16] was 1.153%, the Average viability [6, 17] was 17.162% and the Average viability [6, 18] was 40.867%. For the same molecule, the Average viability [6, 19] was 1.072%, the Average viability [6, 20] was 23.086% and the Average viability [6, 21] was 69.450%. The Average viability [6, 22] was 1.311%, the Average viability [6, 23] was 4.421% and the Average viability [6, 24] was 25.325%. For the same molecule, the “maximum recommended cumulative dose” value [8] was 500 mg/m^2.
